The results in this text go back to patent US7198651B2, “Method of effecting a reversible color change of dyed hair” (Kao Corporation, priority 2003, dated 2007).

A short description of one series: Measurement of pKa value of the dyes (spectrophotometric titration). Particulars: DMF/water (1/1), titration from pH 2 with NaOH, UV-vis inflection point. In kind it is physicochemical. As for the experimental part:
The pKa values of the dyes can be determined by the following method. The dye is dissolved in a solution of a DMF/water (1/1) volume ratio to a final concentration of 2×10^−5 mol/l. After adjusting the resulting solution to pH 2, using 1.0 mol/l hydrochloric acid, the solution is titrated with aqueous 1.0 mol/l sodium hydroxide solution. Recording the change of the visible ultra-violet absorption spectrum, the inflection point can be determined by regression analysis.
What is called pKa is the pH at which an ionisable group is half protonated. For the molecule `CS(=O)(=O)Nc1cccc2c(O)ccc(N=Nc3nc4ccccc4s3)c12` [Dye 9], the pKa stood at 6.1. Still for that read-out and setting: to `CNS(=O)(=O)c1ccc2nsc(/N=N/c3cc(NC(C)=O)c(O)c(NC(C)=O)c3)c2c1` [Dye 39, reference compound] belongs 3.9; to `CCSc1nnc(/N=N/c2c(C(C)(C)C)nn3nc(C(C)C)[nH]c23)s1` [Dye 35, reference compound], 4.7; to `N#CC(/N=N/c1ccc(S(N)(=O)=O)cc1)C(=O)c1ccccc1` (stereo not drawn) [Dye 23], 5.8. Still for that read-out and setting: next, `Cc1nsc(/N=N/c2cc(Cl)c(O)cc2Cl)n1` [Dye 30, reference compound]: 3.8; `NS(=O)(=O)c1ccc2nsc(N=Nc3cc(Cl)c(O)cc3Cl)c2c1` [Dye 13]: 4.7. On the same count and under the same terms, to `CCSc1nnc(N=Nc2ccc(O)c3cccc(NS(C)(=O)=O)c23)s1` [Dye 8] belongs 4.4; to `O=C(Nc1cc(/N=N/c2nc(-c3ccccc3)no2)c2ccccc2c1O)c1ccncc1` [Dye 2], 5.5. As to `CCSc1nsc(/N=N/c2cc(Cl)c(O)cc2Cl)n1` [Dye 26, reference compound], the pKa was found to be 3.5. `CCc1nn2c(-c3ccc(OC)c(NS(C)(=O)=O)c3)n[nH]c2c1/N=N/c1nc(C(C)C)no1` [Dye 36, reference compound] returned a pKa of 5.2. Still for that read-out and setting: to `Oc1ccc(/N=N/c2nc3ccccc3s2)cc1Cl` [Dye 7] belongs 5.9. With `Cc1nn2nc(C(C)(C)C)c(/N=N/c3cc(Cl)c(S(N)(=O)=O)cc3Cl)c2[nH]1` [Dye 24], the pKa was determined as 5.9. Still for that read-out and setting: next, `COCCOc1ccc(N=NC2C(=O)N(c3ccccc3)N=C2C(N)=O)cc1S(N)(=O)=O` (stereo not drawn) [Dye 21]: 6.4; `CCSc1nsc(/N=N/c2cc(Cl)c(O)c(NC(=O)CC)c2)n1` [Dye 25, reference compound]: 3.0. In turn, `CS(=O)(=O)c1ccc(/N=N/c2ccc(O)c3ccccc23)c(C#N)c1` [Dye 3] registered a pKa of 6.5. Consider `CC(=O)Nc1cc(N=Nc2nc(C)ns2)ccc1O` [Dye 32, reference compound], for which the pKa came out at 5.2.

Take `CSc1nnc(/N=N/c2ccc(O)c(NC(C)=O)c2)s1` [Dye 5]: the pKa was found to be 6.1.

Molecule `CC(=O)Nc1cc(/N=N/c2nc3ccccc3s2)ccc1O` [Dye 6] displayed a pKa of 6.2. As for `CCC(=O)Nc1cc(N=Nc2snc3ccc(S(N)(=O)=O)cc23)cc(Cl)c1O` [Dye 12], the pKa worked out at 4.0. Same read-out and setting: to `CCSc1nnc(/N=N/c2c(C(C)(C)C)nn3nc(C)[nH]c23)s1` [Dye 22] belongs 5.5.

Take `Cc1nsc(/N=N/c2ccc(O)c(Cl)c2)n1` [Dye 31, reference compound]: the pKa is listed as 5.0. `CC(=O)Nc1cc(/N=N/c2nncs2)ccc1O` [Dye 1]: the pKa is recorded as 6.0. `CCC(=O)Nc1cc(/N=N/c2nc(C)ns2)cc(Cl)c1O` [Dye 29, reference compound] came in with a pKa of 3.3.

The series is the same for the next values; noted with them: DMF/water (1/1 v/v) solution, titration from pH 2 with NaOH, UV-vis inflection point, read-out: pKa.
Take `CS(=O)(=O)Nc1cccc2c(O)ccc(/N=N/c3snc4ccc(S(N)(=O)=O)cc34)c12` [Dye 10]: the pKa was 5. Same read-out and setting: next, `CC(=O)Nc1cc(/N=N/c2snc3ccc(S(N)(=O)=O)cc23)c(Cl)c(Cl)c1O` [Dye 27, reference compound]: 3; `CC(=O)Nc1cc(/N=N/c2ccc(S(C)(=O)=O)cc2C#N)c2ccccc2c1O` [Dye 4]: 7; `CCC(=O)Nc1cc(/N=N/c2nccs2)cc(Cl)c1O` [Dye 28, reference compound]: 4.8.
